From patent US12077503B2, “Substituted cyclic amides and their use as herbicides” (FMC CORPORATION, priority 2015, dated 2024)

Tests used:
Format in all cases: in vivo
corn (Zea mays) [1] = assay: Test G Pre-Emergence Protocol; details: Zea mays, pre-emergence, 312 h, evaluated after 13 days
How it was run: (§1)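 Seeds were sown in standard soil and kept one day in a glasshouse (24/16° C day/night, 14 h light, 65% humidity), then sprayed with compound in acetone/water (50:50) containing 0.5% Tween 20 at 15.625, 62.5 or 250 g/ha. Damage was scored after 13 days (0 = none, 100 = total).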

[2] = system: velvetleaf (Abutilon theophrasti); assay: Test G Pre-Emergence Protocol; details: Abutilon theophrasti, pre-emergence, 312 h, evaluated after 13 days
How it was run: as §1

[3] = system: redroot pigweed (Amaranthus retroflexus); assay: Test G Pre-Emergence Protocol; details: Amaranthus retroflexus, pre-emergence, 312 h, evaluated after 13 days
How it was run: as §1

[4] = system: giant foxtail (Setaria faberi); assay: Test G Pre-Emergence Protocol; details: Setaria faberi, pre-emergence, 312 h, evaluated after 13 days
How it was run: as §1

[5] = system: ivy-leaved morning glory (Ipomoea hederacea); assay: Test G Pre-Emergence Protocol; details: Ipomoea, pre-emergence, 312 h, evaluated after 13 days
How it was run: as §1

[6] = system: barnyardgrass (Echinochloa crus-galli); assay: Test G Pre-Emergence Protocol; details: Echinochloa crus-galli, pre-emergence, 312 h, evaluated after 13 days
How it was run: as §1

corn (Zea mays) [7] = assay: Test G Post-Emergence Protocol; details: Zea mays, post-emergence, 312 h
How it was run: (§2)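 Foliar application was made 8 days after sowing, using an aqueous spray of the active in acetone/water (50:50) with 0.5% Tween 20, at doses of 15.625, 62.5 or 250 g/ha. Injury was assessed 13 days later, where 100 meant the plant was fully damaged.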

[8] = system: velvetleaf (Abutilon theophrasti); assay: Test G Post-Emergence Protocol; details: Abutilon theophrasti, post-emergence, 312 h
How it was run: as §2

[9] = system: redroot pigweed (Amaranthus retroflexus); assay: Test G Post-Emergence Protocol; details: Amaranthus retroflexus, post-emergence, 312 h
How it was run: as §2

[10] = system: giant foxtail (Setaria faberi); assay: Test G Post-Emergence Protocol; details: Setaria faberi, post-emergence, 312 h
How it was run: as §2

[11] = system: ivy-leaved morning glory (Ipomoea hederacea); assay: Test G Post-Emergence Protocol; details: Ipomoea, post-emergence, 312 h
How it was run: as §2

[12] = system: barnyardgrass (Echinochloa crus-galli); assay: Test G Post-Emergence Protocol; details: Echinochloa crus-galli, post-emergence, 312 h
How it was run: as §2

C=Cc1ccc([C@H]2CN(C)C(=O)[C@@H]2C(=O)Nc2ccccc2F)cc1 (racemic) [Compound 1457]
plant injury at 15.625 g/ha (corn (Zea mays) [1]; 15.625 g ai/ha, read-out: Corn damage rating (100=total damage to plant; 0=no damage to plant)): 0% | plant injury at 62.5 g/ha (corn (Zea mays) [1]; 62.5 g ai/ha, 100=total damage to plant, 0=no damage to plant, read-out: plant damage rating, Corn): 0% | plant injury at 250 g/ha (corn (Zea mays) [1]; 250 g ai/ha, read-out: Corn damage rating (100=total damage to plant; 0=no damage to plant)): 0% | pest or weed control at 15.625 g/ha ([2]; 15.625 g ai/ha, read-out: Velvetleaf damage rating (100=total damage to plant; 0=no damage to plant)): 0% | pest or weed control at 62.5 g/ha ([2]; 62.5 g ai/ha, 100=total damage to plant, 0=no damage to plant, read-out: plant damage rating, Velvetleaf): 0% | pest or weed control at 250 g/ha ([2]; 250 g ai/ha, read-out: Velvetleaf damage rating (100=total damage to plant; 0=no damage to plant)): 0% | pest or weed control at 15.625 g/ha ([3]; 15.625 g ai/ha, read-out: Pigweed, Redroot damage rating (100=total damage to plant; 0=no damage to plant)): 0% | pest or weed control at 62.5 g/ha ([3]; 62.5 g ai/ha, 100=total damage to plant, 0=no damage to plant, read-out: plant damage rating, Pigweed, Redroot): 0% | pest or weed control at 250 g/ha ([3]; 250 g ai/ha, read-out: Pigweed, Redroot damage rating (100=total damage to plant; 0=no damage to plant)): 0% | pest or weed control at 15.625 g/ha ([4]; 15.625 g ai/ha, read-out: Foxtail, Giant damage rating (100=total damage to plant; 0=no damage to plant)): 0% | pest or weed control at 62.5 g/ha ([4]; 62.5 g ai/ha, 100=total damage to plant, 0=no damage to plant, read-out: plant damage rating, Foxtail, Giant): 20% | pest or weed control at 250 g/ha ([4]; 250 g ai/ha, read-out: Foxtail, Giant damage rating (100=total damage to plant; 0=no damage to plant)): 90% | pest or weed control at 15.625 g/ha ([5]; 15.625 g ai/ha, read-out: Morning-glory, Ivy-leaved damage rating (100=total damage to plant; 0=no damage to plant)): 0% | pest or weed control at 62.5 g/ha ([5]; 62.5 g ai/ha, 100=total damage to plant, 0=no damage to plant, read-out: plant damage rating, Morningglory, Ivy-leaved): 0% | pest or weed control at 250 g/ha ([5]; 250 g ai/ha, read-out: Morningglory, Ivy-leaved damage rating (100=total damage to plant; 0=no damage to plant)): 0% | pest or weed control at 15.625 g/ha ([6]; 15.625 g ai/ha, read-out: Barnyard grass damage rating (100=total damage to plant; 0=no damage to plant)): 0% | pest or weed control at 62.5 g/ha ([6]; 62.5 g ai/ha, 100=total damage to plant, 0=no damage to plant, read-out: plant damage rating, Barnyardgrass): 0% | pest or weed control at 250 g/ha ([6]; 250 g ai/ha, read-out: Barnyardgrass damage rating (100=total damage to plant; 0=no damage to plant)): 50% | plant injury at 15.625 g/ha (corn (Zea mays) [7]; 15.625 g ai/ha, evaluated after 13 days (100=total damage to plant; 0=no damage to plant), read-out: Corn damage rating): 0% | plant injury at 62.5 g/ha (corn (Zea mays) [7]; 62.5 g ai/ha, evaluated after 13 days, read-out: Corn damage rating (100=total damage to plant; 0=no damage to plant)): 0% | plant injury at 250 g/ha (corn (Zea mays) [7]; 250 g ai/ha, evaluated after 13 days, read-out: damage to plant, Corn (100=total damage to plant; 0=no damage to plant)): 10% | pest or weed control at 15.625 g/ha ([8]; 15.625 g ai/ha, evaluated after 13 days (100=total damage to plant; 0=no damage to plant), read-out: Velvetleaf damage rating): 0% | pest or weed control at 62.5 g/ha ([8]; 62.5 g ai/ha, evaluated after 13 days, read-out: Velvetleaf damage rating (100=total damage to plant; 0=no damage to plant)): 0% | pest or weed control at 250 g/ha ([8]; 250 g ai/ha, evaluated after 13 days, read-out: damage to plant, Velvetleaf (100=total damage to plant; 0=no damage to plant)): 0% | pest or weed control at 15.625 g/ha ([9]; 15.625 g ai/ha, evaluated after 13 days (100=total damage to plant; 0=no damage to plant), read-out: Pigweed, Redroot damage rating): 0% | pest or weed control at 62.5 g/ha ([9]; 62.5 g ai/ha, evaluated after 13 days, read-out: Pigweed, Redroot damage rating (100=total damage to plant; 0=no damage to plant)): 0% | pest or weed control at 250 g/ha ([9]; 250 g ai/ha, evaluated after 13 days, read-out: damage to plant, Pigweed, Redroot (100=total damage to plant; 0=no damage to plant)): 0% | pest or weed control at 15.625 g/ha ([10]; 15.625 g ai/ha, evaluated after 13 days (100=total damage to plant; 0=no damage to plant), read-out: Foxtail, Giant damage rating): 0% | pest or weed control at 62.5 g/ha ([10]; 62.5 g ai/ha, evaluated after 13 days, read-out: Foxtail, Giant damage rating (100=total damage to plant; 0=no damage to plant)): 20% | pest or weed control at 250 g/ha ([10]; 250 g ai/ha, evaluated after 13 days, read-out: damage to plant, Foxtail, Giant (100=total damage to plant; 0=no damage to plant)): 50% | pest or weed control at 15.625 g/ha ([11]; 15.625 g ai/ha, evaluated after 13 days (100=total damage to plant; 0=no damage to plant), read-out: Morningglory, Ivy-leaved damage rating): 0% | pest or weed control at 62.5 g/ha ([11]; 62.5 g ai/ha, evaluated after 13 days, read-out: Morningglory, Ivy-leaved damage rating (100=total damage to plant; 0=no damage to plant)): 0% | pest or weed control at 250 g/ha ([11]; 250 g ai/ha, evaluated after 13 days, read-out: damage to plant, Morningglory, Ivy-leaved (100=total damage to plant; 0=no damage to plant)): 20% | pest or weed control at 15.625 g/ha ([12]; 15.625 g ai/ha, evaluated after 13 days (100=total damage to plant; 0=no damage to plant), read-out: Barnyardgrass damage rating): 0% | pest or weed control at 62.5 g/ha ([12]; 62.5 g ai/ha, evaluated after 13 days, read-out: Barnyardgrass damage rating (100=total damage to plant; 0=no damage to plant)): 10% | pest or weed control at 250 g/ha ([12]; 250 g ai/ha, evaluated after 13 days, read-out: damage to plant, Barnyardgrass (100=total damage to plant; 0=no damage to plant)): 10%
